# Data reported in patent US11180482B2, “Anilinopyrimidines as haematopoietic progenitor kinase 1 (HPK1) inhibitors” (Ariad Pharmaceuticals, Inc., priority 2016, dated 2021).
# Molecular target: Wild Type HPK1 (MAP4K1) Kinase (Homo sapiens (Human), UniProt Q92918)
# Assay: HPK1 Assay (Caliper EZ reader, fluorescein tagged peptide substrate)
# Assay type: biochemical
# Details: ATP 500 micromolar, kinase 6 nM, pH 7.4
# Description: The enzymatic activity of Wild Type HPK1 (MAP4K1) Kinase was measured in the presence or absence of an inhibitor compound of the present disclosure by preparation of a reaction mixture containing a fluorescein tagged peptide (2 micromolar final concentration), ATP (Adenosine Triphosphate, 500 micromolar final concentration) and Wild Type kinase (6 nM final concentration) in a buffer system comprising 50 mM HEPES (Buffer), 3 mM MgCl2, 5% w/v Trehalose, 0.01% Brij 35 (Detergent), 0.1% Pluronic F127 (Surfactant), 0.1 mM EDTA (Ethylenediaminetetraacetic acid), 0.1 mM EGTA (ethylene glycol-bis(β-aminoethyl ether)-N,N,N′,N′-tetraacetic acid) and 1 mM DTT (Dithiothreitol) and at a pH of 7.4. The reactions were quenched by the addition of EDTA to a final concentration of 25 mM. A Caliper EZ reader was used to measure the extent of substrate to product conversion.
# The peptide substrate used in the HPK1 assay was designed based on the amino acid sequence surrounding serine residue 376 of SLP76-Lymphocyte cytosolic protein 2 (a known intracellular substrate of HPK1). This sequence SSFPQSAsLPPYFSQ was modified as follows for use in Caliper assays of HPK1: the serine residues on either side of serine 376 were replaced with alanine, three lysine residues were added at the […] and a fluorescein tag (FAM) was attached to the […] to produce the sequence, FAM-FPQAAsLPPYFAKKK.
# Chain of Wild Type HPK1 (MAP4K1) Kinase (Q92918 whole entry, species assumed): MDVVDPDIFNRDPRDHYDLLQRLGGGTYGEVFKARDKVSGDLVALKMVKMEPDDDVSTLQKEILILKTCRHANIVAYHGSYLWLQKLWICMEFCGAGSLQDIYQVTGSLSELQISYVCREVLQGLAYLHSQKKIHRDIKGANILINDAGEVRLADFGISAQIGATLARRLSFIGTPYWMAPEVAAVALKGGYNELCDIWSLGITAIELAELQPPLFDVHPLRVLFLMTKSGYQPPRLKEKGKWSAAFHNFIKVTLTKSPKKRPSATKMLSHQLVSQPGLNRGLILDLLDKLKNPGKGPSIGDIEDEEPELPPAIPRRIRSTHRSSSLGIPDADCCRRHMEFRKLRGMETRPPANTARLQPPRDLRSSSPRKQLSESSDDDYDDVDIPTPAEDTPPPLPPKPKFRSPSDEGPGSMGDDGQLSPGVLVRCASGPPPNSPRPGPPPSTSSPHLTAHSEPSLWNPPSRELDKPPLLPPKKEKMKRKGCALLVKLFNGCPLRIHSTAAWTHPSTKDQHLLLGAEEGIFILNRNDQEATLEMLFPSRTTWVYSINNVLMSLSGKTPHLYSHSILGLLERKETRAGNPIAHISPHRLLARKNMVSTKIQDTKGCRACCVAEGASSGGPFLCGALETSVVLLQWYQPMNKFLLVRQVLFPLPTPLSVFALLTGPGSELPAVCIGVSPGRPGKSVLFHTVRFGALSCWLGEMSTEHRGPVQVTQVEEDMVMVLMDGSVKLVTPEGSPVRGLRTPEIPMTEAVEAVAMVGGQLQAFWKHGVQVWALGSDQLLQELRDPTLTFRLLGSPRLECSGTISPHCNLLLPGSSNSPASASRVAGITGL
row,IC50 [nM],Compound
1,100 to 10000,"CN1CCc2cc(C(F)(F)F)c(Nc3ncc(Cl)c(Nc4ccccc4P(C)(C)=O)n3)cc2C1 [Example I-45, (2-((5-chloro-2-((2-methyl-6-(trifluoromethyl)-1,2,3,4-tetrahydroiso-quinolin-7-yl)amino)-pyrimidin-4-yl)-amino)phenyl)dimethylphosphine oxide]"
2,< 5,"C=Cc1cnc(Nc2cc3c(cc2OC)CCN(C)C3)nc1Nc1ccccc1P(C)(C)=O [Example I-46, (2-((2-((6-Methoxy-2-methyl-1,2,3,4-tetrahydroisoquinolin-7-yl)amino)-5-vinylpyrimidin-4-yl)amino)phenyl)dimethylphosphine oxide]"
3,100 to 10000,"COc1cc2c(cc1Nc1ncc(-c3cnn(C)c3)c(Nc3ccccc3P(C)(C)=O)n1)CN(C)CC2 [Example I-47, (2-((2-((6-methoxy-2-methyl-1,2,3,4-tetrahydroisoquinolin-7-yl)amino)-5-(1-methyl-1H-pyrazol-4-yl)pyrimidin-4-yl)amino)phenyl)dimethylphosphine oxide]"
4,5 to 10,"CCc1cnc(Nc2cc3c(cc2OC)CCN(C)C3)nc1Nc1ccccc1P(C)(C)=O [Example I-48, (2-((5-Ethyl-2-((6-methoxy-2-methyl-1,2,3,4-tetrahydroisoquinolin-7-yl)amino)pyrimidin-4-yl)amino)phenyl)dimethylphosphine oxide]"
5,< 5,"COc1cc2c(cc1Nc1ncc(Cl)c(Nc3ccccc3S(=O)(=O)C(C)C)n1)CN(C)CC2 [II-1, 5-chloro-N^4-(2-(isopropylsulfonyl)phenyl)-N^2-(6-methoxy-2-methyl-1,2,3,4-tetrahydroisoquinolin-7-yl)pyrimidine-2,4-diamine]"
6,< 5,"COc1cc2c(cc1Nc1ncc(Cl)c(Nc3ccccc3S(=O)(=O)N(C)C)n1)CN(C)CC2 [II-2, 2-((5-chloro-2-((6-methoxy-2-methyl-1,2,3,4-tetrahydroisoquinolin-7-yl)amino)pyrimidin-4-yl)amino) N,N-dimethylbenzenesulfonamide]"
7,5 to 10,"CNC(=O)c1ccccc1Nc1nc(Nc2cc3c(cc2OC)CCN(C)C3)ncc1Cl [II-3, 2-((5-chloro-2-((6-methoxy-2-methyl-1,2,3,4-tetrahydroisoquinolin-7-yl)amino)pyrimidin-4-yl)amino)-N-methylbenzamide]"
